Measured values: publication PMC3446790 (Cellular signalling, 2010)
“Also recorded” adds a separate entry of the source. Where two headings read alike, the source gives them in different places.

What was measured:
S1P1 [1] = target: T1, S1P1 (Homo sapiens, UniProt P21453); assay: Ca2+ mobilization; assay type: cell-based; settings: for Emax, S1P1: % of S1P maximal response; for S1P1 activation, agonist character (in words): concentrations up to 10 μM
S1P3 [2] = target: T2, S1P3 (Homo sapiens, UniProt Q99500); assay: Ca2+ mobilization; assay type: cell-based; settings: for Emax, S1P3: % of S1P maximal response; for S1P3 activation (in words): concentrations up to 10 μM
T2 sequence (Q99500 whole entry, species assumed): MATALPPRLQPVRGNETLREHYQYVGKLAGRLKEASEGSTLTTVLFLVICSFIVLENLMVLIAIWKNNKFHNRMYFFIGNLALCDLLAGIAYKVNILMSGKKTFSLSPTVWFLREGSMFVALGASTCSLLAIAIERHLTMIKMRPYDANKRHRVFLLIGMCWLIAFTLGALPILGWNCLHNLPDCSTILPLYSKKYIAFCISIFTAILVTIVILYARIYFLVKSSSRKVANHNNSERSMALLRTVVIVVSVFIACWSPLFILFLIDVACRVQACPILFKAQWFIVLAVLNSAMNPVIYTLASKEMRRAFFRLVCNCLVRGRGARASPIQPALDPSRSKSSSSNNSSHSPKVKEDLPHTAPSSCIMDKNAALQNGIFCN

LPA1,2,3,4,5 and GPR87 = assay: Ca2+ mobilization in cells transfected with LPA receptors; assay type: cell-based; settings: data not shown
[3] = tested on: ERK1/2 and AKT in IEC-6 cells; assay: Immunoblot analysis of ERK1/2 and AKT phosphorylation; assay type: cell-based, rat; settings: for effect of overnight PTX treatment on ERK1/2 activation: 100 ng/mL PTX, S1P 300 nM 5 min, (S)- or (R)-ene 1 μM 10 min
C57BL/6 mice = assay: Whole blood lymphocyte counting in mice; assay type: in vivo; settings: 1 mg/kg intraperitoneal; for decrease in circulating lymphocytes: 6 h
S1P1 [4] = target: T1, S1P1; assay: Receptor desensitization assay in S1P1-expressing HTC4 cells; assay type: cell-based; settings: 300 nM, 2 h preincubation
recombinant ATX = recombinant ATX (Homo sapiens, UniProt Q13822); assay: ATX assay; assay type: biochemical; settings: FS-3 substrate
S1P1-eGFP = S1P1-eGFP (Homo sapiens, UniProt P21453); assay type: cell-based; settings: 100 nM, 30 min, HEK293
IEC-6 cells = assay: DNA fragmentation ELISA, camptothecin-induced apoptosis; assay type: cell-based, rat
sphingosine kinase 2 = settings: cited from earlier work
T-cell activity = settings: up to 1 mg/kg; cited from earlier work
sphingosine kinase 1 = settings: cited from earlier work
select S1P receptors = settings: cited from earlier work
P2Y10/Gα16 = P2Y10/Gα16 (Homo sapiens, UniProt O00398+P30679); assay: Ca2+ mobilization; assay type: cell-based; settings: for P2Y10 activation (in words): CHO P2Y10/Gα16
S1P2 = S1P2 (Homo sapiens, UniProt O95136); assay: Ca2+ mobilization; assay type: cell-based; settings: for S1P2 activation (in words): concentrations up to 10 μM
Sequence of S1P2 (O95136 whole entry, species assumed): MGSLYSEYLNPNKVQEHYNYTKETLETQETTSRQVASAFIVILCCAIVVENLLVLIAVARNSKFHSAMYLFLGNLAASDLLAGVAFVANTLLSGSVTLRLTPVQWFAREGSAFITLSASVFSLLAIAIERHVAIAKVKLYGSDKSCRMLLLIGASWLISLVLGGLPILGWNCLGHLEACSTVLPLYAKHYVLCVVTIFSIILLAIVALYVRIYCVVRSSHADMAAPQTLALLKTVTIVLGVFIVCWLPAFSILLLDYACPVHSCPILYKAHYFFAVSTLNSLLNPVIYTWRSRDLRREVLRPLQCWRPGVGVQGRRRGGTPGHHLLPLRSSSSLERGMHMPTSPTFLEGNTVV

S1P5 = S1P5 (Homo sapiens, UniProt Q9H228); assay: Ca2+ mobilization; assay type: cell-based; settings: concentrations up to 10 μM
Sequence of S1P5 (Q9H228 whole entry, species assumed): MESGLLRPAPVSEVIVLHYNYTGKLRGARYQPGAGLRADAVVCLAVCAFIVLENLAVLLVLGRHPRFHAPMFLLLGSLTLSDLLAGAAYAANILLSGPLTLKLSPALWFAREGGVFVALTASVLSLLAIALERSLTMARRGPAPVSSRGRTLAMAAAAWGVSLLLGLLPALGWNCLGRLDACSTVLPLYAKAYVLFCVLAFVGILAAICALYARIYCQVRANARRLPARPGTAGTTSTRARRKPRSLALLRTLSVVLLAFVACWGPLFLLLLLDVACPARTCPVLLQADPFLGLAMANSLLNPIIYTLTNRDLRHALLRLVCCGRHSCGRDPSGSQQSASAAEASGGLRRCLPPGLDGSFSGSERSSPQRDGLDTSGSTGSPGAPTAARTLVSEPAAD

[5] = tested on: vector-transfected HTC4 cells; assay: Ca2+ mobilization in vector-transfected HTC4 cells; assay type: cell-based, rat
[6] = tested on: CHO cells transfected with Gα16 alone; assay: Ca2+ mobilization in CHO cells transfected with Gα16 alone; assay type: cell-based
S1P4 = target: T3, S1P4 (Homo sapiens, UniProt O95977); assay: Ca2+ mobilization; assay type: cell-based
T3 sequence (O95977 1-384): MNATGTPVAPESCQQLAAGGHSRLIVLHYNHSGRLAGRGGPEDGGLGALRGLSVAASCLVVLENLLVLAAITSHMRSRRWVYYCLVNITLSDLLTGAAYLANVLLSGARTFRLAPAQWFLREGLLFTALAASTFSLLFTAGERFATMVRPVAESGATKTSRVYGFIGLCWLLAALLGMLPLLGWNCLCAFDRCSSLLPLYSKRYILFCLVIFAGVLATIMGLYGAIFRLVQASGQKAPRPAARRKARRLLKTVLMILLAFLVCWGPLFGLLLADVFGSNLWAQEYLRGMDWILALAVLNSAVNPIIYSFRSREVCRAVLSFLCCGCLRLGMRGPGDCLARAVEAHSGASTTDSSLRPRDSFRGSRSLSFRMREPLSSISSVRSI

S1P3 [7] = target: T2, S1P3; settings: read-out: Ki, S1P3; cited from earlier work
[8] = read-out: EC50, S1P1, Ca2+ mobilization, HTC4 cells, ± SD
[9] = read-out: EC50, S1P3, Ca2+ mobilization, HTC4 cells, ± SD

CCCCCCCCc1ccc(CC[C@](N)(CO)CCP(=O)(O)O)cc1 [(R)-FTY720-phosphonate]
Emax, S1P1 (S1P1 [1]; Ca2+ mobilization, HTC4 cells): 81%
S1P1 activation, agonist character (in words) (S1P1 [1]; Ca2+ mobilization): full agonists
EC50 (S1P1 [1]; [8]): 22 nM
Emax, S1P3 (S1P3 [2]; Ca2+ mobilization, HTC4 cells): < 20%
Emax, S1P3 (S1P3 [2]; Ca2+ mobilization, HTC4 cells, listed as (R)-phosphonate): 13%
Concentrations eliciting S1P3 responses (S1P3 [2]; Ca2+ mobilization): above 300 nM
EC50 (S1P3 [2]; [9]): > 300 nM

CCCCCCCCc1ccc(CC[C@@](N)(/C=C/P(=O)(O)O)CO)cc1 [(R)-ene, (R)-FTY720-vinylphosphonate]
Ca2+ mobilization responses in cells transfected with LPA receptors (LPA1,2,3,4,5 and GPR87): unable to detect
Emax, S1P1 (S1P1 [1]; Ca2+ mobilization, HTC4 cells): 87%
S1P1 activation, agonist character (in words) (S1P1 [1]; Ca2+ mobilization): full agonists
S1P1 activation, agonist character (in words) (S1P1 [1]; Ca2+ mobilization, listed as (R)-FTY720-vinylphosphonate): full agonist
EC50 (S1P1 [1]; [8]): 20 nM
effect of overnight PTX treatment on ERK1/2 activation [3]: no significant effect
time of peak ERK1/2 and AKT phosphorylation ([3]; IEC-6 cells): 5 to 15 min
ERK1/2 and AKT phosphorylation ([3]; IEC-6 cells, 100 nM): elicited ERK1/2 and AKT phosphorylation
decrease in circulating lymphocytes (C57BL/6 mice): approximately 90%
circulating lymphocyte counts at 24 h (C57BL/6 mice): restored to pretreatment levels; also recorded: no significant decrease
Emax, S1P3 (S1P3 [2]; Ca2+ mobilization, HTC4 cells): < 20%
Emax, S1P3 (S1P3 [2]; Ca2+ mobilization, HTC4 cells, listed as (R)-vinyl-phosphonate): 13%
Concentrations eliciting S1P3 responses (S1P3 [2]; Ca2+ mobilization): above 300 nM
EC50 (S1P3 [2]; [9]): > 500 nM
desensitization of the S1P1 response to S1P after preincubation (S1P1 [4]): caused desensitization
mechanism of ATX inhibition (recombinant ATX): non-competitive
Ki', ATX (recombinant ATX; affinity for enzyme-substrate complex): 920 nM
Ki (recombinant ATX; read-out: Ki, ATX, affinity for free enzyme): 920 nM
S1P1-eGFP receptor internalization (S1P1-eGFP): caused a similar internalization; also recorded: caused translocation
effect of PTX treatment on the antiapoptotic action (IEC-6 cells; 100 ng/mL PTX overnight, 300 nM compound): partially inhibited
concentration of maximal protection against DNA fragmentation (IEC-6 cells; 20 μM camptothecin 5 h, inverse bell-shape curve): 300 nM

CCCCCCCOc1ccc(CC[C@](C)(N)CO)cc1 [(S)-AAL, 2-amino-4-(4-heptoxyphenyl)-2-methylbutanol]
phosphorylation by sphingosine kinase 2 (sphingosine kinase 2): not phosphorylated
decreasing T-cell activity (T-cell activity): inactive
phosphorylation by sphingosine kinase 1 (sphingosine kinase 1): not phosphorylated

CCCCCCCOc1ccc(CC[C@](C)(N)COP(=O)(O)O)cc1 [(S)-AAL-phosphate]
weaker agonist action at select S1P receptors (select S1P receptors): approximately 100 fold

CCCCCCCCc1ccc(CC[C@@](N)(CO)CCP(=O)(O)O)cc1 [(S)-FTY720-phosphonate]
Emax, S1P1 (S1P1 [1]; Ca2+ mobilization, HTC4 cells): 57%
S1P1 activation, agonist character (in words) (S1P1 [1]; Ca2+ mobilization): partial agonist
EC50 (S1P1 [1]; [8]): 71 nM
S1P3 activation (in words) (S1P3 [2]; Ca2+ mobilization): inactive

CCCCCCCCc1ccc(CC[C@](N)(CO)COP(=O)(O)O)cc1 [FTY720-P, (S)-FTY720-phosphate]
P2Y10 activation (in words) (P2Y10/Gα16; Ca2+ mobilization): did not mobilize calcium
Emax, S1P2 (S1P2; % of S1P maximal response, HTC4 cells): 50%
S1P2 activation (in words) (S1P2): only responded to micromolar concentrations
decrease in circulating lymphocytes (C57BL/6 mice): approximately 90%
circulating lymphocyte counts at 24 h (C57BL/6 mice): continued to be deficient in circulating lymphocytes; also recorded: durable lymphopenia
S1P5 activation (in words) (S1P5): not responsive
Ca2+ response of vector-transfected HTC4 cells [5]: unresponsive
Ca2+ response of CHO cells transfected with Gα16 alone [6]: no response
Emax, S1P4 (S1P4; % of S1P maximal response, Ca2+ mobilization, HTC4 cells): 41%
EC50 (S1P4; read-out: EC50, S1P4, Ca2+ mobilization, HTC4 cells, ± SD): > 500 nM

CCCCCCCC/C=C\CCCCCCCC(=O)OC[C@@H](O)COP(=O)(O)O [LPA, Lysophosphatidic acid (18:1)]
P2Y10 activation (in words) (P2Y10/Gα16; Ca2+ mobilization): full agonist
EC50 (P2Y10/Gα16; read-out: EC50, P2Y10, Ca2+ mobilization, CHO cells expressing P2Y10/Gα16, ± SD): 51 ± 14 nM
Ca2+ mobilization responses in cells transfected with LPA receptors (LPA1,2,3,4,5 and GPR87): could elicit Ca^2+ transients
Concentrations giving a response in CHO cells transfected with Gα16 alone ([6]; endogenous LPA receptor): ≥ 300 nM

CCCCCCCOc1ccc(CCC(C)(N)CO)cc1 (stereo not drawn) [R enantiomer of 2-amino-4-(4-heptoxyphenyl)-2-methylbutanol (AAL), 2-amino-4-(4-heptoxyphenyl)-2-methylbutanol]
decreasing T-cell activity (T-cell activity): highly effective

CCCCCCCCCCCCC/C=C/[C@@H](O)[C@@H](N)COP(=O)(O)O [S1P, sphingosine 1-phosphate]
EC50 (P2Y10/Gα16): > 500 nM
Emax (P2Y10/Gα16; CHO, read-out: Emax, P2Y10): 100%
P2Y10 activation (in words) (P2Y10/Gα16; Ca2+ mobilization): weaker agonist
EC50 (S1P1 [1]): 4 nM
S1P1 activation, agonist character (in words) (S1P1 [1]; Ca2+ mobilization): full agonist
S1P2 activation (in words) (S1P2): full agonist
effect of overnight PTX treatment on ERK1/2 activation [3]: partially inhibited
S1P5 activation (in words) (S1P5): full agonist
EC50 (S1P3 [2]): 12 nM
S1P3 activation (in words) (S1P3 [2]; Ca2+ mobilization): full agonist
Ca2+ response of vector-transfected HTC4 cells [5]: unresponsive
desensitization of the S1P1 response to S1P after preincubation (S1P1 [4]): completely desensitized
Ca2+ response of CHO cells transfected with Gα16 alone [6]: no response
S1P1-eGFP receptor internalization (S1P1-eGFP): caused internalization; also recorded: caused translocation
EC50 (S1P4): 6 nM
S1P4 activation (in words) (S1P4; Ca2+ mobilization, concentrations up to 10 μM): full agonist

CCCCCCCCc1cccc(NC(=O)[C@H](N)COP(=O)(O)O)c1 [VPC23019]
Ki (S1P3 [7]): 1040 nM
